Source: ChEMBL document CHEMBL4420073, “Small molecule inhibitors of MUC1 and methods of identifying the same” (2015)
Activity calls are given as the source filed them. No cut-off for these calls is given here.

Assays:
[1] = tested on: ZR-75-1; experiment: Growth inhibition of human ZR-75-1 cells assessed as reduction in cell number incubated up to 2 days by MTS assay; format: functional, cell-based
[2] = molecular target: Mucin-1 (Homo sapiens) (UniProt P15941); experiment: Inhibition of soluble unbound MUC1-CD dimerization (unknown origin) by immunoblot analysis
Sequence of Mucin-1 (Homo sapiens) (P15941 24-1097 limits assumed): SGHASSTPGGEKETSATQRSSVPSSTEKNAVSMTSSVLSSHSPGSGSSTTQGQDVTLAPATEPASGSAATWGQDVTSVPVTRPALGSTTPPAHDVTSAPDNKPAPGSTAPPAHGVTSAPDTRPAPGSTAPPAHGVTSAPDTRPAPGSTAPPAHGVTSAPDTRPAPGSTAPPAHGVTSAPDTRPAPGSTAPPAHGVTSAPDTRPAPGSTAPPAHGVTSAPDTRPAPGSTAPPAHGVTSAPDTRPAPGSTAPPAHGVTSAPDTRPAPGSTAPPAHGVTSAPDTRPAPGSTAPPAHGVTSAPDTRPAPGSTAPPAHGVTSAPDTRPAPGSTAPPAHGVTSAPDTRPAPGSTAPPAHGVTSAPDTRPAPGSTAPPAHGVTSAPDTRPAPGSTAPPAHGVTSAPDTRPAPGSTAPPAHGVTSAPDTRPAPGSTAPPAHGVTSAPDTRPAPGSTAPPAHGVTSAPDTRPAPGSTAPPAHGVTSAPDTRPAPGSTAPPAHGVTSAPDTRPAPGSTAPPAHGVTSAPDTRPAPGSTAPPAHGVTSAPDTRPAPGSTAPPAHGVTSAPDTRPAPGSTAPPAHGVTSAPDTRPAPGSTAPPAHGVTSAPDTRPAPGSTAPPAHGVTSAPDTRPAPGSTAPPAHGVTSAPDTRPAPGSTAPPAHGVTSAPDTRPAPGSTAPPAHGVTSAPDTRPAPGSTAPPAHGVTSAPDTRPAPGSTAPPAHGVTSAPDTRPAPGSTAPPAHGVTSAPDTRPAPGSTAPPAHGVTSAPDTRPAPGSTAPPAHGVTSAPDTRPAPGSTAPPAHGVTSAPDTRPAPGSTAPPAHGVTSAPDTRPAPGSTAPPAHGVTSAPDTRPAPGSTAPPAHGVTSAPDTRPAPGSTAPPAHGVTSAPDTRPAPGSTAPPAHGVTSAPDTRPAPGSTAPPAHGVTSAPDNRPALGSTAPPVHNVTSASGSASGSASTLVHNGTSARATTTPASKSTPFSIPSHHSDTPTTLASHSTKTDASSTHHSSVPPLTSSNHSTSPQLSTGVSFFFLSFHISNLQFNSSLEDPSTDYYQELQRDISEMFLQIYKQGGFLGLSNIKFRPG
Sequence of Mucin-1 (Homo sapiens) (P15941 1098-1255 limits assumed): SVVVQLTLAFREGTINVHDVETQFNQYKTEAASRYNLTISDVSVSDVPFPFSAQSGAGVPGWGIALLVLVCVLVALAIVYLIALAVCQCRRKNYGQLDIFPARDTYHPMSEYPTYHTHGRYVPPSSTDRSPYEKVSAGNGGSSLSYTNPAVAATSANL

[3] = molecular target: Mucin-1 (Homo sapiens) (UniProt P15941); experiment: Inhibition of MUC1 nuclear import in human MCF7 cells assessed as decrease in nuclear MUC1-C levels at 75 uM incubated for 3 days by immunoblot analysis; format: cell-based
[4] = molecular target: Mucin-1 (Homo sapiens) (UniProt P15941); experiment: Inhibition of MUC1-CD dimerization in human MCF10A cells assessed as reduction in MUC1-C levels at 50 to 100 uM incubated for 3 days by immunoblot analysis; format: cell-based
[5] = molecular target: Mucin-1 (Homo sapiens) (UniProt P15941); experiment: Inhibition of biotinylated MUC1-CD dimerization (unknown origin) assessed as decrease in oligomer formation at 100 uM by streptavidin-HRP based assay relative to control
[6] = tested on: MCF7; experiment: Induction of cell membrane integrity loss in human MCF7 cells assessed as PI uptake level at 75 uM incubated for 3 days by propidium iodide staining based flow cytometry (reference value: 22%); format: functional
[7] = tested on: MCF-10A; experiment: Induction of cell membrane integrity loss in immortalized human MCF10A cells assessed as PI uptake level at 75 uM incubated for 3 days by propidium iodide staining based flow cytometry (reference value: 23%); format: functional
[8] = tested on: MCF-10A; experiment: Induction of cell membrane integrity loss in immortalized human MCF10A cells assessed as PI uptake level at 50 uM incubated for 3 days by propidium iodide staining based flow cytometry (reference value: 23%); format: functional
[9] = tested on: MCF-10A; experiment: Induction of cell membrane integrity loss in immortalized human MCF10A cells at 75 uM incubated for 3 days by propidium iodide staining based flow cytometry; format: functional
[10] = tested on: MCF7; experiment: Reduction of MUC1 mRNA levels in human MCF7 cells at 75 uM incubated for 3 days by qRT-PCR analysis; format: functional, cell-based
[11] = molecular target: Mucin-1 (Homo sapiens) (UniProt P15941); experiment: Inhibition of MUC1-CD dimerization (unknown origin) expressed in HEK293 cells assessed as disruption of interaction between Flag-MUC1-CD and GFP-MUC1-CD by coimmunoprecipitation assay; format: cell-based
[12] = molecular target: Mucin-1 (Homo sapiens) (UniProt P15941); experiment: Inhibition of MUC1 in human MCF7 cells assessed as decrease in MUC1 protein level in whole cell lysates at 75 uM incubated for 3 days by immunoblot analysis; format: subcellular; conditions: Lysate
[13] = tested on: MCF-10A; experiment: Growth inhibition of immortalized human MCF10A cells assessed as reduction in cell number up to 100 uM incubated for 3 days by MTS assay; format: functional, cell-based
[14] = tested on: MCF-10A; experiment: Induction of apoptosis in immortalized human MCF10A cells assessed as caspase-9 cleavage at 75 uM incubated for 3 days by immunoblot analysis; format: functional, cell-based
[15] = tested on: MCF-10A; experiment: Growth inhibition in human MCF10A cells assessed as reduction in cell number up to 96 hrs; format: cell-based
[16] = tested on: ZR-75-1; experiment: Antitumor activity against human ZR-75-1 xenografted in nu/nu mouse assessed as reduction in tumor growth at 50 mg/kg/day, ip for 7 days measured on day 7; format: functional, organism-based
[17] = tested on: ZR-75-1; experiment: Effect on cellular MUC1-C levels in human ZR-75-1 cells at 5 uM using FITC-tagged peptide by Western blot analysis; format: functional, cell-based
[18] = tested on: ZR-75-1; experiment: Induction of cell cycle arrest in human ZR-75-1 cells assessed as accumulation at G1 phase at 5 uM incubated for 4 days by propidium iodide staining based flow cytometry (reference value: 64%); format: functional
[19] = tested on: ZR-75-1; experiment: Antitumor activity against human ZR-75-1 xenografted in nu/nu mouse assessed as induction of necrosis in tumor at 50 mg/kg/day, ip for 21 days; format: functional, organism-based
[20] = tested on: ZR-75-1; experiment: Induction of cell cycle arrest in human ZR-75-1 cells assessed as accumulation at S phase at 5 uM incubated for 3 days by propidium iodide staining based flow cytometry (reference value: 29%); format: functional
[21] = tested on: MCF-10A; experiment: Induction of cell cycle arrest in human MCF10A cells assessed as accumulation at S phase at 5 uM incubated for 3 days by propidium iodide staining based flow cytometry (reference value: 38%); conditions: 72 h
[22] = tested on: MCF7; experiment: Induction of cell cycle arrest in human MCF7 cells assessed as accumulation at G2 phase at 5 uM incubated for 3 days by propidium iodide staining based flow cytometry (reference value: 9%); format: functional
[23] = tested on: MCF-10A; experiment: Induction of cell cycle arrest in human MCF10A cells assessed as accumulation at S phase at 5 uM incubated for 4 days by propidium iodide staining based flow cytometry (reference value: 38%); conditions: 96 h
[24] = tested on: MCF7; experiment: Induction of cell cycle arrest in human MCF7 cells assessed as accumulation at G1 phase at 5 uM incubated for 3 days by propidium iodide staining based flow cytometry (reference value: 70%); format: functional
[25] = tested on: ZR-75-1; experiment: Induction of cell cycle arrest in human ZR-75-1 cells assessed as accumulation at G2 phase at 5 uM incubated for 3 days by propidium iodide staining based flow cytometry (reference value: 7%); format: functional
[26] = tested on: ZR-75-1; experiment: Suppression of MUC1 protein expression in tumor area of human ZR-75-1 xenografted in nu/nu mouse at 50 mg/kg/day, ip for 21 days; format: functional, organism-based
[27] = tested on: MCF7; experiment: Induction of necrosis in human MCF7 cells at 5 uM incubated for 3 days by propidium iodide staining based flow cytometry (reference value: 5%); format: functional
[28] = tested on: HEK293; experiment: Growth inhibition of HEK293 cells assessed as reduction in cell number up to 96 hrs; format: cell-based; conditions: human, hek293, 96 h
[29] = molecular target: Mucin-1 (Homo sapiens) (UniProt P15941); experiment: Inhibition of His-tagged MUC1-CD dimerization (unknown origin) assessed as decrease in oligomer formation incubated for 1 hr by SDS-polyacrylamide electrophoresis method based luminescence assay
[30] = tested on: ZR-75-1; experiment: Induction of cell cycle arrest in human ZR-75-1 cells assessed as accumulation at S phase at 5 uM incubated for 4 days by propidium iodide staining based flow cytometry (reference value: 29%); format: functional
[31] = molecular target: Mucin-1 (Homo sapiens) (UniProt P15941); experiment: Inhibition of MUC1 nuclear import in human ZR-75-1 cells assessed as decrease in nuclear MUC1-C levels at 5 uM by Western blot analysis; format: cell-based
[32] = tested on: ZR-75-1; experiment: Growth inhibition in human ZR-75-1 cells assessed as reduction in cell number up to 96 hrs in presence of MUC1 siRNA; format: functional, cell-based
[33] = tested on: MCF7; experiment: Induction of necrosis in human MCF7 cells at 5 uM incubated for 4 days by propidium iodide staining based flow cytometry (reference value: 5%); format: functional
[34] = tested on: ZR-75-1; experiment: Induction of cell cycle arrest in human ZR-75-1 cells assessed as accumulation at G2 phase at 5 uM incubated for 4 days by propidium iodide staining based flow cytometry (reference value: 7%); format: functional
[35] = Drug uptake in human ZR-75-1 cells assessed as mean fluorescence intensity at 5 uM using FITC-tagged peptide incubated for 24 hrs by flow cytometry (reference value: 24); format: ADME, cell-based; conditions: zr-75-1, 24 h
[36] = Toxicity in nu/nu mouse assessed as effect on body weight at 50 mg/kg, ip for 11 days measured over next 28 days after stopping drug administration; format: organism-based; conditions: in vivo, 672 h
[37] = tested on: ZR-75-1; experiment: Induction of cell cycle arrest in human ZR-75-1 cells assessed as accumulation at G1 phase at 5 uM incubated for 3 days by propidium iodide staining based flow cytometry (reference value: 64%); format: functional
[38] = tested on: ZR-75-1; experiment: Induction of necrosis in human ZR-75-1 cells at 5 uM incubated for 3 days by propidium iodide staining based flow cytometry (reference value: 8%); format: functional
[39] = tested on: ZR-75-1; experiment: Induction of necrosis in human ZR-75-1 cells at 5 uM incubated for 4 days by propidium iodide staining based flow cytometry (reference value: 8%); format: functional
[40] = tested on: MCF7; experiment: Induction of cell cycle arrest in human MCF7 cells assessed as accumulation at S phase at 5 uM incubated for 3 days by propidium iodide staining based flow cytometry (reference value: 21%); format: functional
[41] = Drug uptake in human ZR-75-1 cells assessed as mean fluorescence intensity at 5 uM using FITC-tagged peptide incubated for 6 hrs by flow cytometry (reference value: 24); format: ADME, cell-based; conditions: zr-75-1, 6 h
[42] = tested on: ZR-75-1; experiment: Antitumor activity against human ZR-75-1 xenografted in nu/nu mouse assessed as reduction in tumor growth at 50 mg/kg/day, ip for 7 days followed by treatment cessation and measured over next 17 days; format: functional, organism-based
[43] = Drug uptake in human ZR-75-1 cells assessed as mean fluorescence intensity at 5 uM using FITC-tagged peptide incubated for 2 hrs by flow cytometry (reference value: 24); format: ADME, cell-based; conditions: zr-75-1, 2 h
[44] = molecular target: Mucin-1 (Homo sapiens) (UniProt P15941); experiment: Inhibition of MUC1-CD dimerization (unknown origin) expressed in HEK293 cells assessed as disruption of interaction between Flag-MUC1-CD and GFP-MUC1-CD at […] by coimmunoprecipitation assay; format: cell-based
[45] = molecular target: Mucin-1 (Homo sapiens) (UniProt P15941); experiment: Inhibition of MUC1 nuclear import in human MCF7 cells assessed as decrease in nuclear MUC1-C levels at 5 uM by Western blot analysis; format: cell-based
[46] = tested on: ZR-75-1; experiment: Growth inhibition in human ZR-75-1 cells assessed as reduction in cell number up to 96 hrs in presence of control siRNA; format: functional, cell-based

O=c1c(O)c(-c2ccc(O)cc2)oc2cc(O)cc(O)c12
growth inhibition (GI) [1]: Active

O=c1cc(-c2ccccc2)oc2cc(O)c(O)c(O)c12 [BAICALEIN]
inhibition [2]: inactive
inhibition [3]: inactive
inhibition [4]: inactive
inhibition [5]: inactive
Activity [6]: 19%
Activity [7]: 28%
Activity [8]: 27%
Activity [9]: inactive
Activity [10]: inactive
inhibition [11]: inactive
inhibition [12]: inactive
growth inhibition (GI) [13]: inactive
Activity [14]: inactive

O=c1cc(C(F)(F)F)c2ccc(OCc3ccccc3)cc2o1
inhibition [5]: > 50%

CCCCc1cc2c(=O)c(-c3cc[nH]n3)c(C)oc2cc1O
inhibition [5]: > 50%

CCCc1c(C)c2ccc(OC(=O)C(C)NC(=O)OCc3ccccc3)cc2oc1=O (stereo not drawn)
inhibition [5]: > 50%

CCCc1cc2c(=O)c(-c3ccc4c(c3)OCCCO4)c(C)oc2cc1OC
inhibition [5]: > 50%

COc1ccc2c(=O)c(-c3cscn3)c(C(F)(F)F)oc2c1
inhibition [5]: > 50%

CCOC(=O)c1oc2cc(OCc3ccc(C(=O)OC)o3)ccc2c(=O)c1-c1ccc(C(=O)OC)o1
inhibition [5]: > 50%

CC(=O)C(C)Oc1ccc2c(-c3ccccc3)cc(=O)oc2c1 (stereo not drawn)
inhibition [5]: > 50%

CC[C@H](C)[C@H](NC(=O)[C@H](CC(=O)O)NC(=O)[C@H](CC(C)C)NC(=O)[C@H](CCC(N)=O)NC(=O)CNC(=O)[C@H](Cc1ccc(O)cc1)NC(=O)[C@H](CC(N)=O)NC(=O)[C@H](CCCCN)NC(=O)[C@H](CCCNC(=N)N)NC(=O)[C@H](CCCNC(=N)N)NC(=O)[C@H](CS)NC(=O)[C@H](CCC(N)=O)NC(=O)[C@H](CS)NC(=O)[C@H](CCCNC(=N)N)NC(=O)[C@@H](CCCNC(=N)N)NC(=O)[C@@H](CCCNC(=N)N)NC(=O)[C@@H](CCCNC(=N)N)NC(=O)[C@@H](CCCNC(=N)N)NC(=O)[C@@H](CCCNC(=N)N)NC(=O)[C@@H](CCCNC(=N)N)NC(=O)[C@@H](CCCNC(=N)N)NC(=O)[C@H](N)CCCNC(=N)N)C(=O)N[C@@H](Cc1ccccc1)C(=O)N1CCC[C@H]1C(=O)O
growth inhibition (GI) [15]: Non-Toxic
Activity [16]: Active
Activity [17]: inactive
Activity [18]: 49%
Activity [19]: Active
Activity [20]: 69%
Activity [21]: 42%
Activity [22]: 0%
Activity [23]: 42%
Activity [24]: 54%
Activity [25]: 2%
Activity [26]: Active
Activity [27]: 24%
growth inhibition (GI) [28]: Non-Toxic
inhibition [29]: Active
Activity [30]: 37%
inhibition [31]: Active
growth inhibition (GI) [32]: inactive
Activity [33]: 44%
Activity [34]: 14%
Flu intensity [35]: 615
Activity [36]: Non-Toxic
Activity [37]: 29%
Activity [38]: 34%
Activity [39]: 74%
Activity [40]: 46%
Flu intensity [41]: 252
Activity [42]: Active
Flu intensity [43]: 145
inhibition [44]: Active
inhibition [45]: Active
growth inhibition (GI) [46]: Active
